Measurements as given in patent US5140018A, “1,3,2-benzodithiazole-1-oxide compounds” (Abbott Laboratories, priority 1991, dated 1992).
Values after ≈ are worked out from the molar mass of the structure shown. Like-named read-outs stand apart in the source and are kept apart here.

How the values were obtained:
Assay type in all cases: cell-based
Candida albicans 579A = assay: In vitro antifungal MIC, Candida albicans 579A
Description: (§1) The in vitro antifungal activity of the compounds of the present invention against a variety of fungiwas determined as follow: Test medium was prepared by dissolving first 5 g of dextrose and then 6.7 g of Bacto Yeast Nitrogen Base® (commercially available from Difco Laboratories) in 100 mL of distilled water. The solution was filter-sterilized and diluted 1:10 with 0.01M pH 8.0 phosphate buffer solution, and the final pH of the medium adjusted to about pH 7.0 when necessary with either 0.1N hydrochloric acid solution of 0.1N sodium hydroxide solution. […] These concentrated stock solutions were diluted to a concentration of 200 μg/mL (twice the highest concentration desired for testing) with the test medium. Amphotericin B, similarly prepared, was used as a reference antifungal agent.
(§2) The test organisms were then inoculated into test tubes containing approximately 3 to 10 mL of test medium and the test tubes incubated overnight at 37° C. A sample of each overnight culture was placed in a test tube and diluted using the test medium until a reading of 95% transmittance was obtained in a conventional UV/visible spectrophotometer set to 560 nm. The adjusted cultures were then diluted 1:50 with test medium. These diluted cultures served as the inocula for the assays which follow and were used within 15 minutes of preparation.
(§3) Next, 2-fold serial dilutions of each test compound in test medium were prepared in a 96-well microtiter plate using calibrated microdiluters attached to an automatic (hand-held) diluter (available from Dynatech Laboratories).
(§4) Using sterile calibrated droppers or a multi-point dispenser, the diluted inoculum suspension was added to each of the wells in the plate. When inoculation was complete, the microtiter tray was covered with a plastic plate sealer to minimize evaporation. After the plate had been sealed, a hole was made above each well with a sterile 26-gauge syringe needle in order to allow gas exchange. If plate sealers were not available, the microtiter trays were stacked in groups of five or less with an empty tray on top. The microtiter trays were then incubated in a humidified chamber at 35°-37° C. for 48 hours or until growth was visible in the growth control wells.
(§5) The minimum inhibitory concentration (MIC) was defined as the lowest concentration of test compound yielding no growth, a slight haze or sparsely isolated colonies on the inoculum spot as compared to the growth control containing no test compound.

[1] = system: Candida albicans ATCC 10231; assay: In vitro antifungal MIC, Candida albicans ATCC 10231
Description: as §1, §2, §3, §4, §5

[2] = system: Torulopsis glabrata ATCC 15545; assay: In vitro antifungal MIC, Torulopsis glabrata ATCC 15545
Description: as §1, §2, §3, §4, §5

[3] = system: Candida albicans ATCC 62376; assay: In vitro antifungal MIC, Candida albicans ATCC 62376
Description: as §1, §2, §3, §4, §5

Candida kefyr ATCC 28838 = assay: In vitro antifungal MIC, Candida kefyr ATCC 28838
Description: as §1, §2, §3, §4, §5

[4] = system: Aspergillus niger ATCC 16404; assay: In vitro antifungal MIC, Aspergillus niger ATCC 16404
Description: as §1, §2, §3, §4, §5

[5] = system: Candida albicans ATCC 38247; assay: In vitro antifungal MIC, Candida albicans ATCC 38247
Description: as §1, §2, §3, §4, §5

[6] = system: Candida tropicalis NRRL-Y-112; assay: In vitro antifungal MIC, Candida tropicalis NRRL-Y-112
Description: as §1, §2, §3, §4, §5

[7] = system: Cryptococcus albidus ATCC 34140; assay: In vitro antifungal MIC, Cryptococcus albidus ATCC 34140
Description: as §1, §2, §3, §4, §5

Candida albicans CCH 442 = assay: In vitro antifungal MIC, Candida albicans CCH 442
Description: as §1, §2, §3, §4, §5

[8] = Candida albicans 579A, 35°-37° C., 48 hours, read-out: MIC
[9] = ATCC10231, Candida albicans ATCC 10231, 35°-37° C., 48 hours, read-out: MIC
[10] = Nakaseomyces glabratus, ATCC15545, Torulopsis glabrata ATCC 15545, 35°-37° C., 48 hours, read-out: MIC
[11] = ATCC62376, Candida albicans ATCC 62376, 35°-37° C., 48 hours, read-out: MIC
[12] = Kluyveromyces marxianus, ATCC28838, Candida kefyr ATCC 28838, 35°-37° C., 48 hours, read-out: MIC
[13] = ATCC16404, Aspergillus niger ATCC 16404, 35°-37° C., 48 hours, read-out: MIC
[14] = ATCC38247, Candida albicans ATCC 38247, 35°-37° C., 48 hours, read-out: MIC
[15] = NRRLY112, Candida tropicalis NRRL-Y-112, 35°-37° C., 48 hours, read-out: MIC
[16] = Naganishia albida, ATCC34140, Cryptococcus albidus ATCC 34140, 35°-37° C., 48 hours, read-out: MIC
[17] = CCH442, Candida albicans CCH 442, 35°-37° C., 48 hours, read-out: MIC

| MIC (Candida albicans 579A; [8]) | MIC [1, 9] | MIC [2, 10] | MIC [3, 11] | MIC (Candida kefyr ATCC 28838; [12]) | MIC [4, 13] | MIC [5, 14] | MIC [6, 15] | MIC [7, 16] | MIC (Candida albicans CCH 442; [17]) | SMILES | further results |
| --- | --- | --- | --- | --- | --- | --- | --- | --- | --- | --- | --- |
| – | – | – | – | – | – | – | – | – | – | CC[Si](CC)(CC)OCCN1Sc2ccccc2[S+]1[O-] (stereo not shown) [Example 20, 2-(2-(triethylsilyloxy)ethyl)-1,3,2-benzodithiazole-1-oxide] | MIC (Candida albicans 579A; Candida albicans, 579A, 48 h): 25 µg/mL (≈ 75.9 µM); MIC ([1]; Candida albicans, ATCC10231, 48 h): 25 µg/mL (≈ 75.9 µM); MIC ([2]; Nakaseomyces glabratus, ATCC15545, 48 h): 25 µg/mL (≈ 75.9 µM); MIC ([3]; Candida albicans, ATCC62376, 48 h): 25 µg/mL (≈ 75.9 µM); MIC (Candida kefyr ATCC 28838; Kluyveromyces marxianus, ATCC28838, 48 h): 1.56 µg/mL (≈ 4.73 µM); MIC ([4]; Aspergillus niger, ATCC16404, 48 h): 12.5 µg/mL (≈ 37.9 µM); MIC ([5]; Candida albicans, ATCC38247, 48 h): 3.12 µg/mL (≈ 9.47 µM); MIC ([6]; Candida tropicalis, NRRLY112, 48 h): 25 µg/mL (≈ 75.9 µM); MIC ([7]; Naganishia albida, ATCC34140, 48 h): 12.5 µg/mL (≈ 37.9 µM); MIC (Candida albicans CCH 442; Candida albicans, CCH442, 48 h): 50 µg/mL (≈ 152 µM) |
| – | – | – | – | – | – | – | – | – | – | CCOC(=O)CN1Sc2ccccc2[S+]1[O-] (stereo not shown) [Example 21, ethyl 2-(1,3,2-benzodithiazole-2-yl-1-oxide)-acetate] | MIC (Candida albicans 579A; Candida albicans 579A, 35°-37° C., 48 hours): 6.25 µg/mL (≈ 24.3 µM); MIC ([1]; Candida albicans ATCC 10231, 35°-37° C., 48 hours): 6.25 µg/mL (≈ 24.3 µM); MIC ([2]; Torulopsis glabrata ATCC 15545, 35°-37° C., 48 hours): 3.12 µg/mL (≈ 12.1 µM); MIC ([3]; Candida albicans ATCC 62376, 35°-37° C., 48 hours): 6.25 µg/mL (≈ 24.3 µM); MIC (Candida kefyr ATCC 28838; Candida kefyr ATCC 28838, 35°-37° C., 48 hours): 0.78 µg/mL (≈ 3.03 µM); MIC ([4]; Aspergillus niger ATCC 16404, 35°-37° C., 48 hours): 1.56 µg/mL (≈ 6.06 µM); MIC ([5]; Candida albicans ATCC 38247, 35°-37° C., 48 hours): 6.25 µg/mL (≈ 24.3 µM); MIC ([6]; Candida tropicalis NRRL-Y-112, 35°-37° C., 48 hours): 6.25 µg/mL (≈ 24.3 µM); MIC ([7]; Cryptococcus albidus ATCC 34140, 35°-37° C., 48 hours): 12.5 µg/mL (≈ 48.6 µM); MIC (Candida albicans CCH 442; Candida albicans CCH 442, 35°-37° C., 48 hours): 6.25 µg/mL (≈ 24.3 µM) |
| 100 µg/mL (≈ 366 µM) | 100 µg/mL (≈ 366 µM) | 100 µg/mL (≈ 366 µM) | 100 µg/mL (≈ 366 µM) | 3.12 µg/mL (≈ 11.4 µM) | 25 µg/mL (≈ 91.5 µM) | 50 µg/mL (≈ 183 µM) | 100 µg/mL (≈ 366 µM) | 100 µg/mL (≈ 366 µM) | 100 µg/mL (≈ 366 µM) | O=C(O)COCCN1Sc2ccccc2[S+]1[O-] (stereo not shown) [Example 22, 2-(2-(1,3,2-benzodithiazole-2-yl-1-oxide)ethyloxy) acetic acid] | – |
| 50 µg/mL (≈ 195 µM) | 50 µg/mL (≈ 195 µM) | 50 µg/mL (≈ 195 µM) | 50 µg/mL (≈ 195 µM) | 3.12 µg/mL (≈ 12.2 µM) | 12.5 µg/mL (≈ 48.8 µM) | 12.5 µg/mL (≈ 48.8 µM) | 50 µg/mL (≈ 195 µM) | 12.5 µg/mL (≈ 48.8 µM) | 50 µg/mL (≈ 195 µM) | CN(C)CCCN1Sc2ccccc2[S+]1[O-] (stereo not shown) [Example 23, 2-(3-(N,N-dimethylamino)-n-propyl)-1,3,2-benzodithiazole-1-oxide] | – |
| 25 µg/mL (≈ 88.5 µM) | 25 µg/mL (≈ 88.5 µM) | 12.5 µg/mL (≈ 44.3 µM) | 25 µg/mL (≈ 88.5 µM) | 0.78 µg/mL (≈ 2.76 µM) | 3.12 µg/mL (≈ 11 µM) | 12.5 µg/mL (≈ 44.3 µM) | 25 µg/mL (≈ 88.5 µM) | 12.5 µg/mL (≈ 44.3 µM) | 25 µg/mL (≈ 88.5 µM) | [O-][S+]1c2ccccc2SN1CCN1CCCCC1 (stereo not shown) [Example 24, 2-(2-(1-piperidinyl)ethyl)-1,3,2-benzodithiazole-1-oxide] | – |
| 3.12 µg/mL (≈ 9.89 µM) | 6.25 µg/mL (≈ 19.8 µM) | 6.25 µg/mL (≈ 19.8 µM) | 6.25 µg/mL (≈ 19.8 µM) | 3.12 µg/mL (≈ 9.89 µM) | 3.12 µg/mL (≈ 9.89 µM) | 1.56 µg/mL (≈ 4.95 µM) | 12.5 µg/mL (≈ 39.6 µM) | 12.5 µg/mL (≈ 39.6 µM) | 1.56 µg/mL (≈ 4.95 µM) | CCOC(CCCN1Sc2ccccc2[S+]1[O-])OCC (stereo not shown) [Example 25, 2-(4,4-diethoxybutyl)-1,3,2-benzodithiazole-1-oxide] | – |
| 3.12 µg/mL (≈ 9.53 µM) | 1.56 µg/mL (≈ 4.76 µM) | 3.12 µg/mL (≈ 9.53 µM) | 1.56 µg/mL (≈ 4.76 µM) | 0.78 µg/mL (≈ 2.38 µM) | 0.78 µg/mL (≈ 2.38 µM) | 12.5 µg/mL (≈ 38.2 µM) | 3.12 µg/mL (≈ 9.53 µM) | 6.25 µg/mL (≈ 19.1 µM) | 3.12 µg/mL (≈ 9.53 µM) | COC(=O)CCCCCCCN1Sc2ccccc2[S+]1[O-] (stereo not shown) [Example 26] | – |
| 0.78 µg/mL (≈ 3.69 µM) | 1.56 µg/mL (≈ 7.38 µM) | 0.78 µg/mL (≈ 3.69 µM) | 0.78 µg/mL (≈ 3.69 µM) | 0.39 µg/mL (≈ 1.85 µM) | 0.39 µg/mL (≈ 1.85 µM) | 3.12 µg/mL (≈ 14.8 µM) | 1.56 µg/mL (≈ 7.38 µM) | 3.12 µg/mL (≈ 14.8 µM) | 1.56 µg/mL (≈ 7.38 µM) | [O-][S+]1c2ccccc2SN1C1CC1 (stereo not shown) [Example 27, 2-cyclopropyl-1,3,2-benzodithiazole-1-oxide] | – |
| 3.12 µg/mL (≈ 11.1 µM) | 3.12 µg/mL (≈ 11.1 µM) | 3.12 µg/mL (≈ 11.1 µM) | 3.12 µg/mL (≈ 11.1 µM) | 0.39 µg/mL (≈ 1.39 µM) | 0.78 µg/mL (≈ 2.77 µM) | 6.25 µg/mL (≈ 22.2 µM) | 3.12 µg/mL (≈ 11.1 µM) | 12.5 µg/mL (≈ 44.4 µM) | 3.12 µg/mL (≈ 11.1 µM) | [O-][S+]1c2ccccc2SN1C1CCCCCCC1 (stereo not shown) [Example 28, 2-cyclooctyl-1,3,2-benzodithiazole-1-oxide] | – |
| 12.5 µg/mL (≈ 40.9 µM) | 6.25 µg/mL (≈ 20.5 µM) | 12.5 µg/mL (≈ 40.9 µM) | 6.25 µg/mL (≈ 20.5 µM) | 3.12 µg/mL (≈ 10.2 µM) | 3.12 µg/mL (≈ 10.2 µM) | 50 µg/mL (≈ 164 µM) | 12.5 µg/mL (≈ 40.9 µM) | 25 µg/mL (≈ 81.8 µM) | 25 µg/mL (≈ 81.8 µM) | [O-][S+]1c2ccccc2SN1C1C2CC3CC(C2)CC1C3 (stereo not shown) [Example 29, 2-(2-adamantyl)-1,3,2-benzodithiazole-1-oxide] | – |
